Laboratory results published in patent US11667602B2, “Compounds and their use” (AstraZeneca AB, priority 2020, dated 2023).
Values after ≈ are worked out from the molar mass of the structure shown. Read-outs that look alike come from different tables or passages of the source.

Legend:
[1] = Human Plasma Protein Binding (Test B); format: in vitro ADME; settings: fraction unbound (fu)
Summary of the method: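 Human plasma protein binding run per the published Wernevik et al. (2020) integrated DMPK panel protocol. Values are fraction unbound (fu, % free); repeat runs averaged arithmetically.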

[2] = Human Liver Microsomal Stability (Test C); format: in vitro ADME; settings: human, liver microsomes
Summary of the method: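 Human liver microsome incubation per the Wernevik et al. integrated DMPK panel protocol. Intrinsic clearance reported as CLint in μl/min/mg protein, averaged arithmetically over repeat runs.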

Solubility (Test F) = format: physicochemical; settings: arithmetic mean if run multiple times
Description: The assay was conducted according to the Solubility Assay described in pages 164-167 of Wernevik, J. et al., “A Fully Integrated Assay Panel for Early Drug Metabolism and Pharmacokinetics Profiling”, Assay and Drug Development Technologies, 2020, 18(4), 157-179. Data are reported in Table 36 as solubility ([…]. Where the assay was run multiple times for the same compound, the arithmetic mean is reported.

human RXFP1 = molecular target: T1, human RXFP1 (Homo sapiens, UniProt Q9HBX9); test: RXFP1 Hu cAMP (Test A); format: cell-based; set-up: expressed in transfected cells; host or cells: Jump-In T-REx CHO-K1 cells (ThermoFisher), induced with 10 ng/ml doxycycline for 24 h
T1 sequence (Q9HBX9 1-757): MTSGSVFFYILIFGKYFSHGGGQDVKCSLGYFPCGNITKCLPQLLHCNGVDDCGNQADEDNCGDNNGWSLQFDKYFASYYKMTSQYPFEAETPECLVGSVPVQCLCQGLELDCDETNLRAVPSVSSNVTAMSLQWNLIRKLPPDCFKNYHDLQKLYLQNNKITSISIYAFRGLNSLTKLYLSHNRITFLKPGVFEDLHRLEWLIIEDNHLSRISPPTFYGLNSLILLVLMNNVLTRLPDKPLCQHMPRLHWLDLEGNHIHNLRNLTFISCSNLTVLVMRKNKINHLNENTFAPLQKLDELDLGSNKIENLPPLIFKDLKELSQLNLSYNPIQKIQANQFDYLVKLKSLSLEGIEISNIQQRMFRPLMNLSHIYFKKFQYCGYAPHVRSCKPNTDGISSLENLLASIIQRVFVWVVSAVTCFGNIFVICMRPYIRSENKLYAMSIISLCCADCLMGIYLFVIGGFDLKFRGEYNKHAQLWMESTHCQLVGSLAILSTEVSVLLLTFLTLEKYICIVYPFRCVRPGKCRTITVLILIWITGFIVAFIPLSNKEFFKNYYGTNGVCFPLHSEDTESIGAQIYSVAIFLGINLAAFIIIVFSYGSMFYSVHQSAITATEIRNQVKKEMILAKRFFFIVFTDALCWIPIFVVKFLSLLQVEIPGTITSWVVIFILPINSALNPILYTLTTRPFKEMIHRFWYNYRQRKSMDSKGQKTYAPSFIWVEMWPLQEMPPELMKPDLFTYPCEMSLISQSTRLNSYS
Summary of the method: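 Doxycycline-induced (10 ng/ml, 24 h) CHO-K1 cells stably expressing human RXFP1; cAMP read by competitive HTRF after 2 h at room temperature, with 0.5 mM IBMX final.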

[3] = Human Hepatocyte Stability (Test D); format: in vitro ADME; settings: human, cryopreserved pooled human hepatocytes (LiverPool 10-Donor), geometric mean if run multiple times
Summary of the method: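 Pooled 10-donor cryopreserved human hepatocytes (≥80% viable) in L-15 medium at 0.25×10^6 cells per 0.25 mL well. Compound added from 100 μM acetonitrile solution; incubated at 37 °C with shaking, acetonitrile-quenched, LC-MS analysed. Clint (μL/min/10^6 cells) from ln % parent vs time slope; geometric mean of repeat runs.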

[4] = Rat Hepatocyte Stability (Test E); format: in vitro ADME; settings: rat, hepatocytes, geometric mean if run multiple times
Summary of the method: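 Run per the published AstraZeneca-type rat hepatocyte stability protocol (Wernevik et al. panel). Values are mean intrinsic clearance, Clint in μl/min/10^6 cells; geometric mean used for repeated runs.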

[5] = RXFP1 Hu cAMP, read-out: Test A EC50

Test B Human Plasma Protein Binding (% free) [1]	microsomal CLint [2]	solubility (Solubility (Test F))	Test A Sinf (human RXFP1; RXFP1 Hu cAMP)	EC50 (human RXFP1; [5])	hepatocyte CLint at 1 µM [3]	hepatocyte CLint [4]	SMILES	EC50 (human RXFP1; Test A EC50, RXFP1 Hu cAMP)
<0.32 % free	5.1 µL/min/mg	24 µM (≈ 16.1 µg/mL)	107%	–	5 µL/min/1e6 cells	21 µL/min/1e6 cells	COc1cc(F)c(-c2ccc(C3(C(=O)O)CC3)cc2)cc1C(=O)N[C@H]1[C@@H](C(=O)Nc2cccc(S(=O)(=O)C(F)(F)F)c2)[C@@H]2C=C[C@H]1C2 (racemic) [Example 288]	–
1.4 % free	63 µL/min/mg	880 µM (≈ 567 µg/mL)	103%	–	150 µL/min/1e6 cells	> 300 µL/min/1e6 cells	COc1cc(F)c(OCCCCCC(=O)O)cc1C(=O)N[C@@H]1[C@H]2CC[C@H](C2)[C@@H]1C(=O)Nc1cccc(S(=O)(=O)C(F)(F)F)c1 [Example 435, 6-(2-Fluoro-4-methoxy-5-(((1S,2R,3S,4R)-3-((3-((trifluoromethyl)sulfonyl)phenyl)carbamoyl)bicyclo[2.2.1]heptan-2-yl)carbamoyl)phenoxy)hexanoic acid]	–
0.31 % free	5.5 µL/min/mg	11 µM (≈ 7.11 µg/mL)	170%	870 nM	5 µL/min/1e6 cells	9.1 µL/min/1e6 cells	COc1cc(F)c(-c2cccc(CC(=O)O)c2)cc1C(=O)N[C@H]1[C@@H](C(=O)Nc2cccc(S(=O)(=O)C(F)(F)F)c2)[C@@H]2C=C[C@H]1C2 (racemic) [Example 281]	–
<0.30 % free	9.9 µL/min/mg	> 1000 µM	–	> 50000 nM	9.2 µL/min/1e6 cells	18 µL/min/1e6 cells	COc1cc(F)c(-c2ccc(C(=O)O)cc2)cc1C(=O)N[C@@H]1[C@H](C(=O)Nc2cccc(S(=O)(=O)C(F)(F)F)c2)[C@H]2C=C[C@@H]1C2 (single isomer, unassigned) [Example 553]	–
0.82 % free	70 µL/min/mg	220 µM (≈ 145 µg/mL)	115%	540 nM	97 µL/min/1e6 cells	> 300 µL/min/1e6 cells	COc1cc(F)c(OCCCCCCC(=O)O)cc1C(=O)N[C@@H]1[C@H]2CC[C@H](C2)[C@@H]1C(=O)Nc1cccc(S(=O)(=O)C(F)(F)F)c1 [Example 436]	–
0.86 % free	23 µL/min/mg	> 980 µM	113%	> 30 nM	7.7 µL/min/1e6 cells	17 µL/min/1e6 cells	COc1cc(F)c(O[C@H]2CC[C@@H](C(=O)O)CC2)cc1C(=O)N[C@H]1[C@@H](C(=O)Nc2ccc(F)c(C(F)(F)F)c2)[C@@H]2C=C[C@H]1C2 (single isomer, unassigned) [Example 498]	–

More lines, now with the values behind:

SMILES	Test B Human Plasma Protein Binding (% free) [1]	microsomal CLint [2]	solubility (Solubility (Test F))	Test A Sinf (human RXFP1; RXFP1 Hu cAMP)	EC50 (human RXFP1; [5])	hepatocyte CLint at 1 µM [3]	hepatocyte CLint [4]	EC50 (human RXFP1; Test A EC50, RXFP1 Hu cAMP)
CCC(CC)CNC(=O)[C@H]1[C@@H]2CC[C@@H](C2)[C@H]1NC(=O)c1cc(OC2CCC(C)(C(=O)O)CC2)c(F)cc1OC (some centres unmarked) [Example 43]	1.3 % free	33 µL/min/mg	770 µM (≈ 421 µg/mL)	106%	83 nM	5 µL/min/1e6 cells	25 µL/min/1e6 cells	–
COc1cc(C#N)c(O[C@H]2CC[C@@](C)(C(=O)O)CC2)cc1C(=O)N[C@@H]1[C@H]2CC[C@H](C2)[C@@H]1C(=O)NC12CC(C1)C2 [Example 141, (1S,4s)-4-(5-(((1S,2R,3S,4R)-3-(Bicyclo[1.1.1]pentan-1-ylcarbamoyl)-bicyclo[2.2.1]heptan-2-yl)carbamoyl)-2-cyano-4-methoxyphenoxy)-1-methylcyclohexane-1-carboxylic acid]	16 % free	8.3 µL/min/mg	920 µM (≈ 493 µg/mL)	107%	74 nM	< 1 µL/min/1e6 cells	17 µL/min/1e6 cells	–
COc1cc(F)c(O[C@H]2CC[C@@](C)(C(=O)O)CC2)cc1C(=O)N[C@@H]1[C@H]2CC[C@H](C2)[C@@H]1C(=O)NC12CC(F)(C1)C2 [Example 608]	3.5 % free	20 µL/min/mg	880 µM (≈ 481 µg/mL)	115%	75 nM	3.4 µL/min/1e6 cells	8.2 µL/min/1e6 cells	–
COc1cc(F)c(O[C@H]2CC[C@@H](C(=O)O)CC2)cc1C(=O)N[C@@H]1[C@H]2CC[C@H](C2)[C@@H]1C(=O)Nc1ccccc1 [Example 201, (1S,4s)-4-(2-Fluoro-4-methoxy-5-(((1S,2R,3S,4R)-3-(phenylcarbamoyl)bicyclo[2.2.1]heptan-2-yl)carbamoyl)phenoxy)cyclohexane-1-carboxylic acid]	1.6 % free	23 µL/min/mg	940 µM (≈ 493 µg/mL)	98%	7200 nM	7.6 µL/min/1e6 cells	190 µL/min/1e6 cells	–
CC(C)Oc1cc(F)c(O[C@H]2CC[C@@](CO)(C(=O)O)CC2)cc1C(=O)N[C@@H]1[C@H]2CC[C@H](C2)[C@@H]1C(=O)NCC1(C)CCC1 [Example 486, (1S,4s)-4-(2-Fluoro-4-isopropoxy-5-(((1S,2R,3S,4R)-3-(((1-methylcyclobutyl)methyl)carbamoyl)bicyclo[2.2.1]heptan-2-yl)carbamoyl)phenoxy)-1-(hydroxymethyl)cyclohexane-1-carboxylic acid]	6.8 % free	35 µL/min/mg	950 µM (≈ 559 µg/mL)	107%	7.6 nM	22 µL/min/1e6 cells	28 µL/min/1e6 cells	–
CC1(CNC(=O)[C@H]2[C@@H]3CC[C@@H](C3)[C@H]2NC(=O)c2cc(O[C@H]3CC[C@@](C)(C(=O)O)CC3)c(C#N)cc2F)CCC1 [Example 401]	2.7 % free	16 µL/min/mg	1000 µM (≈ 540 µg/mL)	115%	–	5.4 µL/min/1e6 cells	17 µL/min/1e6 cells	49 nM
COc1cc(F)c(OC2CCC(C)(C(=O)O)CC2)cc1C(=O)NC1C2CCC(CC2)C1C(=O)NCC1(C)CCC1 (single isomer, unassigned) [Example 542, (1R,4s)-4-(2-Fluoro-4-methoxy-5-(((2S*,3R*)-3-(((1-methylcyclobutyl)methyl)carbamoyl)bicyclo[2.2.2]octan-2-yl)carbamoyl)phenoxy)-1-methylcyclohexane-1-carboxylic acid]	2.5 % free	66 µL/min/mg	800 µM (≈ 447 µg/mL)	110%	11 nM	32 µL/min/1e6 cells	12 µL/min/1e6 cells	–
COc1cc(F)c(O[C@H]2CC[C@@](C)(C(=O)O)CC2)cc1C(=O)NC1CCOCC1C(=O)Nc1cccc(S(=O)(=O)C(F)(F)F)c1 (single isomer, unassigned) [Example 518, (1R,4s)-4-(2-Fluoro-4-methoxy-5-(((3S*,4S*)-3-((3-((trifluoromethyl)sulfonyl)phenyl)carbamoyl)tetrahydro-2H-pyran-4-yl)carbamoyl)phenoxy)-1-methylcyclohexane-1-carboxylic acid]	2.1 % free	22 µL/min/mg	990 µM (≈ 654 µg/mL)	95%	130 nM	5 µL/min/1e6 cells	13 µL/min/1e6 cells	–
